What was measured:
MDA-MB-435 = test: MTT cytotoxicity assay (Example 1); format: cell-based, human; conditions: Homo sapiens, MDA-MB-435, 72 h
Excerpt: (§1) Human breast cancer cells MDA-MB-435 were purchased from the American Type Culture Collection (Manassas, Va.). The HCT116 p53+/+ and HCT116 p53−/− cells were kindly provided by Dr. Bert Vogelstein (Johns Hopkins Medical Institutions, Baltimore, Md.). The human ovarian carcinoma cell line (HEY) which is naturally resistant to cisplatin, was kindly provided by Dr. Louis Dubeau, University of Southern California (USC) Norris Cancer Center, and NIH3T3 normal mouse fibroblast cells were kindly provided by Dr. Michael Press from USC. HEY and NIH3T3 cells were maintained as monolayer cultures in RPMI, HCT 116 cells in McCoy1s5A media and MDA-MB 435 in DMEM. Media were purchased from (Mediatech, Virginia) and supplemented with 10% fetal bovine serum (Gemini-Bioproducts, Woodland, Calif.), 2 mM L-glutamine and 5% Penicillin/streptomycin from Bio whittaker were purchased from VWR. Cells were incubated at 37° C. in a humidified atmosphere of 5% CO2. To remove the adherent cells from the flask for passaging and counting, cells were washed with PBS without calcium or magnesium, incubated with a small volume of 0.25% trypsin-EDTA solution (Sigma-Aldrich, St. Louis, Mo.) for 5-10 min, and washed with culture medium and centrifuged. All experiments were performed using cells at exponential growth stage. Cells were routinely checked for mycoplasma contamination using a PCR-based assay (Stratagene, Tex., USA).
(§2) Stock solutions (10 mM) of all compounds were prepared in DMSO and stored at −20° C. Further dilutions were made fresh in PBS or cell-culture media right before cell treatment.
(§3) Cytotoxicity was assessed by a 3-(4,s-dimethylthiazol-2-yl)-2,5-diphenyltetrazolium bromide (MTT) assay as previously described.^24 Briefly, cells were seeded in 96-well microtiter plates and allowed to attach overnight. Cells were subsequently treated with continuous exposure to the corresponding drug for 72 h. A MTT solution (at a final concentration of 0.5 mglml) was added to each well, and cells were incubated for 4 h at 37° C. After removal of the medium, DMSO was added and the absorbance was read at 570 nm. All assays were done in triplicate. The IC50 was then determined for each drug from a plot of log (drug concentration) versus percentage of cells killed.

HEY = test: MTT cytotoxicity assay (Example 1); format: cell-based, human; conditions: 72 h
Excerpt: as §1, §2, §3

NIH3T3 = test: MTT cytotoxicity assay (Example 1); format: cell-based, mouse; conditions: Mus musculus, NIH3T3, 72 h
Excerpt: as §1, §2, §3

[1] = test system: panel of cancer cell lines; test: MTT cytotoxicity, panel of cancer cell lines (Example 1); format: cell-based; conditions: other selected cells, dose up to 10.0 μM
Excerpt: as §1, with “To remove the adherent cells from the flask for passaging and counting, cells were washed with PBS without calcium or magnesium, incubated with a small volume of 0.25% trypsin-EDTA solution (Sigma-Aldrich, St. Louis, Mo.) for 5-10 min, and washed with culture medium and centrifuged. All experiments were performed using cells at exponential growth stage. Cells were routinely checked for mycoplasma contamination using a PCR-based assay (Stratagene, Tex., USA).” left out
Cytotoxicity was assessed by a 3-(4,s-dimethylthiazol-2-yl)-2,5-diphenyltetrazolium bromide (MTT) assay as previously described.^24 Briefly, cells were seeded in 96-well microtiter plates and allowed to attach overnight. […] After removal of the medium, DMSO was added and the absorbance was read at 570 nm. […] The IC50 was then determined for each drug from a plot of log (drug concentration) versus percentage of cells killed.

HCT116 p53+/+ = test: MTT cytotoxicity assay (Example 1); format: cell-based; conditions: for IC50: MTT, 72 h
Excerpt: as §1, §2, §3

HCT116 p53−/− = test: MTT cytotoxicity assay (Example 1); format: cell-based; conditions: for IC50: MTT, 72 h
Excerpt: as §1, §2, §3

Cc1cccc(Nc2nc3nonc3nc2NN=Cc2ccc(-c3ccccc3Cl)o2)c1C [Compound 19] gave an IC50 (MDA-MB-435) of over 10 µM, an IC50 (HEY) of 5 µM and an IC50 (HEY; Homo sapiens) of 3 µM. For the same compound, the IC50 (NIH3T3) was over 10 µM, the toxicity [1] was “not toxic” and the toxicity (HCT116 p53+/+) was “toxic”. The IC50 (HCT116 p53+/+; Homo sapiens, HCT-116, 72 h) was 3 µM, the IC50 (HCT116 p53+/+) was 2 µM and the toxicity (HCT116 p53−/−) was “toxic”. It also gave an IC50 (HCT116 p53−/−; Homo sapiens, HCT-116, 72 h) of 6 µM and an IC50 (HCT116 p53−/−) of 4 µM.
